43 molecules from US10829427B2, “Naphthoquinones, pro-drugs, and methods of use thereof” (The Board of Regents of the University of Texas System, priority 2015, dated 2020) can be followed below.

Structures are written as SMILES.

The test relates to Mia PaCa-2 cells. As to the kind of experiment: ATP assay (ATP depletion / cell viability) in Mia PaCa-2 cells. The test is classed as cell-based, human. The settings on record: Relative activity compare with β-lapachone in ATP depletion of Mia PaCa-2 cells. Here is the method: In vitro anti-cancer activity of the compound were performed using ATP Assay Kit (Abcam, ab83355) to initially screen, and further performed using 7-day DNA assay.
Cell culture: endogenous NQO1 overexpressing human MIA PaCa-2 pancreactic and A549 NSCLC cancer cells were obtained (Bey, et al., 2007; Li, et al., 2011). Cancer cells were grown in DMEM with 5% FBS and Mycoplasma free, and cultured at 37° C. in a 5% CO2 95% air humidified atmosphere.
ATP assay: Cells were seeded into each well of a 96-well plate (15000 cells/well) 18 hours ahead of experiment. After aspiration of the media from each well, 100 μl drug-contained media was added instead, and further incubated for 2 hours. After incubation, 100 μl ATP assay kit mixture was added into every well. Following further shaking for 10 minutes with light proof, the data were collected by reading luminescence integrate 1 second per well.
Consider `CC(C)OC1=CC(=O)C(=O)c2cc(Br)ccc21` [Compound 1, 7-bromo-4-isopropoxynaphthalene-1,2-dione], for which the “IC50/IC50 (β-lapachone/Compoud)” value is less than 0.3.

Consider `O=C1C=C(OC2CCCCC2)c2ccc(Br)cc2C1=O` [Compound 2, 7-bromo-4-(cyclohexyloxy)naphthalene-1,2-dione], for which the “IC50/IC50 (β-lapachone/Compoud)” value is given as less than 0.3.

Consider `CC(C)OC1=CC(=O)C(=O)c2cc(F)ccc21` [Compound 3, 7-fluoro-4-isopropoxynaphthalene-1,2-dione], for which the “IC50/IC50 (β-lapachone/Compoud)” value is recorded as less than 0.3.

In the case of `O=C1C=C(OC2CCCCC2)c2ccc(Cl)cc2C1=O` [Compound 5, 7-chloro-4-(cyclohexyloxy)naphthalene-1,2-dione], the “IC50/IC50 (β-lapachone/Compoud)” value is on record as less than 0.3.

With `CC(C)OC1=CC(=O)C(=O)c2cccc(Cl)c21` [Compound 6, 5-chloro-4-isopropoxynaphthalene-1,2-dione], the “IC50/IC50 (β-lapachone/Compoud)” value was less than 0.3.

For the molecule `CC(C)OC1=CC(=O)C(=O)c2cccc([N+](=O)[O-])c21` [Compound 7, 4-isopropoxy-5-nitronaphthalene-1,2-dione], the “IC50/IC50 (β-lapachone/Compoud)” value was 0.3~1.

`COc1cc2c(cc1OC)C(OC(C)C)=CC(=O)C2=O` [Compound 8, 4-isopropoxy-6,7-dimethoxynaphthalene-1,2-dione]: the “IC50/IC50 (β-lapachone/Compoud)” value was less than 0.3.

Turning to `CC(C)OC1=CC(=O)C(=O)c2cc3c(cc21)OCO3` [Compound 9, 8-isopropoxynaphtho[2,3-d][1,3]dioxole-5,6-dione], the “IC50/IC50 (β-lapachone/Compoud)” value is less than 0.3.

Consider `Cc1cc(C)c2c(c1)C(=O)C(=O)C=C2OC(C)C` [Compound 10, 4-isopropoxy-5,7-dimethylnaphthalene-1,2-dione], for which the “IC50/IC50 (β-lapachone/Compoud)” value was less than 0.3.

For the molecule `CC(C)OC1=C(Br)C(=O)C(=O)c2ccccc21` [Compound 11, 3-bromo-4-isopropoxynaphthalene-1,2-dione], the “IC50/IC50 (β-lapachone/Compoud)” value is reported as less than 0.3.

As for `CC(C)OC1=C(Br)C(=O)c2ccccc2C1=O` [Compound 12, 2-bromo-3-isopropoxynaphthalene-1,4-dione], the “IC50/IC50 (β-lapachone/Compoud)” value is less than 0.3.

As to `CC(C)OC1=C(Cl)C(=O)C(=O)c2ccccc21` [Compound 13, 3-chloro-4-isopropoxynaphthalene-1,2-dione], the “IC50/IC50 (β-lapachone/Compoud)” value was less than 0.3.

For `CC(C)OC1=CC(=O)C(=O)c2c(Cl)cccc21` [Compound 14, 8-chloro-4-isopropoxynaphthalene-1,2-dione], the “IC50/IC50 (β-lapachone/Compoud)” value is recorded as 0.3~1.

Take `O=C1C=C(OC2CCCCC2)c2cccc(Cl)c2C1=O` [Compound 16, 8-chloro-4-(cyclohexyloxy)naphthalene-1,2-dione]: the “IC50/IC50 (β-lapachone/Compoud)” value is recorded as 0.3~1.

Turning to `Cc1ccc(S(=O)(=O)Nc2cccc3c2C(=O)C(=O)C=C3OC(C)C)cc1` [Compound 17, N-(5-isopropoxy-7,8-dioxo-7,8-dihydronaphthalen-1-yl)-4-methylbenzenesulfonamide], the “IC50/IC50 (β-lapachone/Compoud)” value is reported as less than 0.3.

As to `CC(C)OC1=CC(=O)C(=O)c2c(NC(=O)C(F)(F)F)cccc21` [Compound 19, 2,2,2-trifluoro-N-(5-isopropoxy-7,8-dioxo-7,8-dihydronaphthalen-1-yl)acetamide], the “IC50/IC50 (β-lapachone/Compoud)” value is given as less than 0.3.

In the case of `CC(C)OC1=CC(=O)c2cccc(NC(=O)C(F)(F)F)c2C1=O` [Compound 20, 2,2,2-trifluoro-N-(7-isopropoxy-5,8-dioxo-5,8-dihydronaphthalen-1-yl)acetamide], the “IC50/IC50 (β-lapachone/Compoud)” value is less than 0.3.

With `CC(C)OC1=CC(=O)c2cccc(NS(C)(=O)=O)c2C1=O` [Compound 22, N-(7-isopropoxy-5,8-dioxo-5,8-dihydronaphthalen-1-yl)methanesulfonamide], the “IC50/IC50 (β-lapachone/Compoud)” value is reported as less than 0.3.

Regarding `CC(C)OC1=CC(=O)C(=O)c2c(NS(=O)(=O)C(F)(F)F)cccc21` [Compound 23, 1,1,1-trifluoro-N-(5-isopropoxy-7,8-dioxo-7,8-dihydronaphthalen-1-yl)methanesulfonamide], the “IC50/IC50 (β-lapachone/Compoud)” value is given as less than 0.3.

As to `CC(=O)Nc1cccc2c1C(=O)C(=O)C=C2OC1CCCCC1` [Compound 25, N-(5-(cyclohexyloxy)-7,8-dioxo-7,8-dihydronaphthalen-1-yl)acetamide], the “IC50/IC50 (β-lapachone/Compoud)” value is listed as less than 0.3.

For `CS(=O)(=O)Nc1cccc2c1C(=O)C(=O)C=C2OC1CCCCC1` [Compound 26, N-(5-(cyclohexyloxy)-7,8-dioxo-7,8-dihydronaphthalen-1-yl)methanesulfonamide], the “IC50/IC50 (β-lapachone/Compoud)” value is recorded as less than 0.3.

For the molecule `CC(=O)Nc1cccc2c1C(=O)C(=O)C=C2OCCCO` [Compound 27, N-(5-(3-hydroxypropoxy)-7,8-dioxo-7,8-dihydronaphthalen-1-yl)acetamide], the “IC50/IC50 (β-lapachone/Compoud)” value was less than 0.3.

With `CC(C)OC1=CC(=O)C(=O)c2c(N)cccc21` [Compound 29, 8-amino-4-isopropoxynaphthalene-1,2-dione], the “IC50/IC50 (β-lapachone/Compoud)” value is less than 0.3.

Regarding `CC(C)Nc1cccc2c1C(=O)C(OC(C)C)=CC2=O` [Compound 31, 2-isopropoxy-8-(isopropylamino)naphthalene-1,4-dione], the “IC50/IC50 (β-lapachone/Compoud)” value is listed as less than 0.3.

On to `CC(C)OC1=CC(=O)C(=O)c2cccc(Br)c21` [Compound 32, 5-bromo-4-isopropoxynaphthalene-1,2-dione], for which the “IC50/IC50 (β-lapachone/Compoud)” value is recorded as less than 0.3.

For `CC(C)OC1=CC(=O)C(=O)c2ccc(NC(=O)OC(C)(C)C)cc21` [Compound 33, tert-butyl (8-isopropoxy-5,6-dioxo-5,6-dihydronaphthalen-2-yl)carbamate], the “IC50/IC50 (β-lapachone/Compoud)” value is listed as less than 0.3.

For the molecule `O=C1C=C(OC2CCCCC2)c2cc(Cl)ccc2C1=O` [Compound 35, 6-chloro-4-(cyclohexyloxy)naphthalene-1,2-dione], the “IC50/IC50 (β-lapachone/Compoud)” value is 0.3~1.

With `CC(C)OC1=CC(=O)C(=O)c2ccc(Br)cc21` [Compound 36, 6-bromo-4-isopropoxynaphthalene-1,2-dione], the “IC50/IC50 (β-lapachone/Compoud)” value is listed as less than 0.3.

As for `O=C1C=C(OC2CCCCC2)c2cccc(O)c2C1=O` [Compound 39, 4-(cyclohexyloxy)-8-hydroxynaphthalene-1,2-dione], the “IC50/IC50 (β-lapachone/Compoud)” value was 0.3~1.

As to `CC(C)OC1=CC(=O)C(=O)c2cccc(O)c21` [Compound 40, 5-hydroxy-4-isopropoxynaphthalene-1,2-dione], the “IC50/IC50 (β-lapachone/Compoud)” value was less than 0.3.

Consider `CC(C)OC1=CC(=O)C(=O)c2cccc(OCCN3CCOCC3)c21` [Compound 42, 4-isopropoxy-5-(2-morpholinoethoxy)naphthalene-1,2-dione], for which the “IC50/IC50 (β-lapachone/Compoud)” value was less than 0.3.

For `CC(=O)Nc1cccc2c1C(=O)C(=O)C=C2OCCN1CCOCC1` [Compound 43, N-(5-(2-morpholinoethoxy)-7,8-dioxo-7,8-dihydronaphthalen-1-yl)acetamide], the “IC50/IC50 (β-lapachone/Compoud)” value was 0.3~1.

`CC(=O)Nc1cccc2c1C(=O)C(OCCN1CCOCC1)=CC2=O` [Compound 44, N-(7-(2-morpholinoethoxy)-5,8-dioxo-5,8-dihydronaphthalen-1-yl)acetamide]: the “IC50/IC50 (β-lapachone/Compoud)” value is on record as 0.3~1.

Turning to `CC(=O)Nc1cccc2c1C(=O)C(OCCN(C)C)=CC2=O` [Compound 45, N-(7-(2-(dimethylamino)ethoxy)-5,8-dioxo-5,8-dihydronaphthalen-1-yl)acetamide], the “IC50/IC50 (β-lapachone/Compoud)” value is 1~2.

For `COC1=CC(=O)C(=O)c2c(NC(C)=O)cccc21` [Compound 46, N-(5-methoxy-7,8-dioxo-7,8-dihydronaphthalen-1-yl)acetamide], the “IC50/IC50 (β-lapachone/Compoud)” value is 1~3.

`COC1=C(C)C(=O)C(=O)c2c(NC(C)=O)cccc21` [Compound 47, N-(5-methoxy-6-methyl-7,8-dioxo-7,8-dihydronaphthalen-1-yl)acetamide]: the “IC50/IC50 (β-lapachone/Compoud)” value is on record as less than 0.3.

Consider `CCCCOC1=CC(=O)C(=O)c2c(NC(C)=O)cccc21` [Compound 50, N-(5-butoxy-7,8-dioxo-7,8-dihydronaphthalen-1-yl)acetamide], for which the “IC50/IC50 (β-lapachone/Compoud)” value is on record as 1~2.

Take `CCCCCCCCOC1=CC(=O)C(=O)c2c(NC(C)=O)cccc21` [Compound 51, N-(5-(octyloxy)-7,8-dioxo-7,8-dihydronaphthalen-1-yl)acetamide]: the “IC50/IC50 (β-lapachone/Compoud)” value is on record as less than 0.3.

With `CCC(CC)OC1=CC(=O)C(=O)c2c(NC(C)=O)cccc21` [Compound 52, N-(7,8-dioxo-5-(pentan-3-yloxy)-7,8-dihydronaphthalen-1-yl)acetamide], the “IC50/IC50 (β-lapachone/Compoud)” value is less than 0.3.

As for `CCC(CC)OC1=CC(=O)C(=O)c2c(NS(C)(=O)=O)cccc21` [Compound 53, N-(7,8-dioxo-5-(pentan-3-yloxy)-7,8-dihydronaphthalen-1-yl)methanesulfonamide], the “IC50/IC50 (β-lapachone/Compoud)” value is reported as less than 0.3.

For the molecule `CCCCCCOC1=CC(=O)C(=O)c2c(NS(C)(=O)=O)cccc21` [Compound 54, N-(5-(hexyloxy)-7,8-dioxo-7,8-dihydronaphthalen-1-yl)methanesulfonamide], the “IC50/IC50 (β-lapachone/Compoud)” value is less than 0.3.

For the molecule `CCCCCCCCOC1=CC(=O)C(=O)c2c(NS(C)(=O)=O)cccc21` [Compound 55, N-(5-(octyloxy)-7,8-dioxo-7,8-dihydronaphthalen-1-yl)methanesulfonamide], the “IC50/IC50 (β-lapachone/Compoud)” value was 1~2.

Regarding `COCCOCCOCCOCCOC1=CC(=O)C(=O)c2c(NS(C)(=O)=O)cccc21` [Compound 56, N-(5-(2,5,8,11-tetraoxatridecan-13-yloxy)-7,8-dioxo-7,8-dihydronaphthalen-1-yl)methanesulfonamide], the “IC50/IC50 (β-lapachone/Compoud)” value is recorded as less than 0.3.
